Measured values from patent US5053070A, “Pyrimidine derivatives, preparation processes thereof, herbicide containing the same, and herbicidal compositions containing the same along with other active ingredient” (Mitsui Toatsu Chemicals, Incorporated, priority 1988, dated 1991).

How the values were obtained:
[1] = test system: foxtail meadow; experiment: Upland soil application test (Test 2); type: in vivo; details: 30 g ai/a, soil spray before emergence, 30 days later
Method in brief: (§1)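 Weed damage was rated at 30 days by comparing air-dried plant weights against untreated controls. Compound had been applied as a water-diluted wettable powder (10 l per are), sprayed on the soil surface one day after sowing, before emergence, with weed seed incorporated in upland field soil.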

[2] = test system: green foxtail; experiment: Upland soil application test (Test 2); type: in vivo; details: 30 g ai/a, soil spray before emergence, 30 days later
Method in brief: as §1

[3] = test system: johnsongrass; experiment: Upland soil application test (Test 2); type: in vivo; details: 30 g ai/a, soil spray before emergence, 30 days later
Method in brief: as §1

[4] = test system: redroot pigweed; experiment: Upland foliar application test (Test 3); type: in vivo; details: 30 g ai/a, foliar spray at 2-3 leaves, 30th day
Method in brief: (§2)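 Steps: sow in upland soil, greenhouse; grow to 2-3 leaf stage; spray leaves with water-diluted emulsion at 5 l per are using a ULV sprayer; assess effects on day 30.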

[5] = test system: foxtail meadow; experiment: Upland foliar application test (Test 3); type: in vivo; details: 30 g ai/a, foliar spray at 2-3 leaves, 30th day
Method in brief: as §2

[6] = test system: common lambsquarters; experiment: Upland foliar application test (Test 3); type: in vivo; details: 30 g ai/a, foliar spray at 2-3 leaves, 30th day
Method in brief: as §2

[7] = test system: barnyardgrass; experiment: Upland foliar application test (Test 3); type: in vivo; details: 30 g ai/a, foliar spray at 2-3 leaves, 30th day
Method in brief: as §2

[8] = test system: green foxtail; experiment: Upland foliar application test (Test 3); type: in vivo; details: 30 g ai/a, foliar spray at 2-3 leaves, 30th day
Method in brief: as §2

[9] = test system: johnsongrass; experiment: Upland foliar application test (Test 3); type: in vivo; details: 30 g ai/a, foliar spray at 2-3 leaves, 30th day
Method in brief: as §2

[10] = test system: large crabgrass; experiment: Upland foliar application test (Test 3); type: in vivo; details: 30 g ai/a, foliar spray at 2-3 leaves, 30th day
Method in brief: as §2

[11] = test system: rice; experiment: Treatment of soil under submerged condition, pre-emergence (Test 4), injury; type: in vivo; details: 30 g ai/a granule, 30 days later
Method in brief: (§3)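 Under submerged conditions, pots carrying weed propagules and transplanted young rice (2–3 leaves) were given a granulated test composition one day after planting, ahead of weed emergence. Plants grew in a greenhouse, with weed emergence and crop injury read 30 days after treatment.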

[12] = test system: ALS (acetolactate syntase); experiment: ALS enzyme assay (Test 1); type: biochemical, barnyardgrass; details: 1,000 ppm (0.5 mg/0.5 ml)
Method in brief: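 Partially purified ALS from dark-grown pea and barnyardgrass seedlings incubated 1 h at 30° C with pyruvate, TPP, MgCl2 and FAD. Compounds tested at 1,000 ppm (0.5 mg/0.5 ml). Acetoin formed detected colorimetrically at 525 nm via creatine/α-naphthol, relative to blank and acid-stopped controls.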

[13] = test system: bulrush; experiment: Treatment of soil under submerged condition, pre-emergence (Test 4); type: in vivo; details: 30 g ai/a granule, 30 days later
Method in brief: as §3

[14] = test system: barnyardgrass; experiment: as above; type: in vivo; details: 30 g ai/a granule, 30 days later
Method in brief: as §3

[15] = test system: Sagittaria pygmaea; experiment: as above; type: in vivo; details: 30 g ai/a granule, 30 days later
Method in brief: as §3

CC#CCON=Cc1ccccc1Oc1nc(OC)cc(OC)n1 [compound 10]
5 (0-5 (Death)): Herbicidal effects Redroot pigweed [4] | Herbicidal effects Barnyardgrass [7] | Herbicidal effects Johnsongrass [9] | Herbicidal effects Large crabgrass [10] | Herbicidal effects Barnyardgrass [14]
4 (6-10 (Severe damages)): Herbicidal effects Foxtail meadow [1] | Herbicidal effects Green foxtail [2] | Herbicidal effects Johnsongrass [3] | Herbicidal effects Foxtail meadow [5] | Herbicidal effects Common lambsquarters [6] | Herbicidal effects Green foxtail [8] | Herbicidal effects Bulrush [13] | Herbicidal effects Sagittaria Pygmaea [15]
55%: Inhibitory activity (%) Barnyardgrass [12]
1 (71-90 (Slight damages)): Injury Rice [11]

COc1cc(OC)nc(Oc2ccccc2C=NOCC=CCl)n1 [compound 11]
43%: Inhibitory activity (%) Barnyardgrass [12]
5 (0-5 (Death)): Herbicidal effects Foxtail meadow [1] | Herbicidal effects Green foxtail [2] | Herbicidal effects Johnsongrass [3] | Herbicidal effects Redroot pigweed [4] | Herbicidal effects Foxtail meadow [5] | Herbicidal effects Barnyardgrass [7] | Herbicidal effects Green foxtail [8] | Herbicidal effects Johnsongrass [9] | Herbicidal effects Large crabgrass [10]
3 (11-40 (Medium damages)): Herbicidal effects Bulrush [13]
4 (6-10 (Severe damages)): Herbicidal effects Common lambsquarters [6] | Herbicidal effects Barnyardgrass [14] | Herbicidal effects Sagittaria Pygmaea [15]
1 (71-90 (Slight damages)): Injury Rice [11]

COc1cc(OC)nc(Oc2ccccc2C=NOCC=C(C)Cl)n1 [compound 12]
1 (71-90 (Slight damages)): Injury Rice [11]
5 (0-5 (Death)): Herbicidal effects Johnsongrass [9]
3 (11-40 (Medium damages)): Herbicidal effects Redroot pigweed [4] | Herbicidal effects Common lambsquarters [6]
39%: Inhibitory activity (%) Barnyardgrass [12]
4 (6-10 (Severe damages)): Herbicidal effects Foxtail meadow [1] | Herbicidal effects Green foxtail [2] | Herbicidal effects Johnsongrass [3] | Herbicidal effects Foxtail meadow [5] | Herbicidal effects Barnyardgrass [7] | Herbicidal effects Green foxtail [8] | Herbicidal effects Large crabgrass [10] | Herbicidal effects Bulrush [13] | Herbicidal effects Barnyardgrass [14] | Herbicidal effects Sagittaria Pygmaea [15]

COc1cc(OC)nc(Oc2ccccc2C=NOCc2ccccc2Cl)n1 [compound 16]
0 (91-100 (No damages)): Injury Rice [11]
5 (0-5 (Death)): Herbicidal effects Green foxtail [8] | Herbicidal effects Johnsongrass [9]
15%: Inhibitory activity (%) Barnyardgrass [12]
4 (6-10 (Severe damages)): Herbicidal effects Redroot pigweed [4] | Herbicidal effects Barnyardgrass [14] | Herbicidal effects Sagittaria Pygmaea [15]
3 (11-40 (Medium damages)): Herbicidal effects Foxtail meadow [1] | Herbicidal effects Green foxtail [2] | Herbicidal effects Johnsongrass [3] | Herbicidal effects Foxtail meadow [5] | Herbicidal effects Common lambsquarters [6] | Herbicidal effects Barnyardgrass [7] | Herbicidal effects Large crabgrass [10] | Herbicidal effects Bulrush [13]

COc1cc(OC)nc(Oc2ccccc2C=NOCc2ccc(Cl)c(Cl)c2)n1 [compound 18]
14%: Inhibitory activity (%) Barnyardgrass [12]
5 (0-5 (Death)): Herbicidal effects Green foxtail [8] | Herbicidal effects Johnsongrass [9]
0 (91-100 (No damages)): Injury Rice [11]
3 (11-40 (Medium damages)): Herbicidal effects Foxtail meadow [1] | Herbicidal effects Johnsongrass [3] | Herbicidal effects Common lambsquarters [6] | Herbicidal effects Large crabgrass [10]
2 (41-70 (Small damages)): Herbicidal effects Bulrush [13]
4 (6-10 (Severe damages)): Herbicidal effects Green foxtail [2] | Herbicidal effects Redroot pigweed [4] | Herbicidal effects Foxtail meadow [5] | Herbicidal effects Barnyardgrass [7] | Herbicidal effects Barnyardgrass [14] | Herbicidal effects Sagittaria Pygmaea [15]

COc1cc(OC)nc(Oc2ccccc2C=NOCc2ccc(C)cc2)n1 [compound 19]
4 (6-10 (Severe damages)): Herbicidal effects Foxtail meadow [1] | Herbicidal effects Green foxtail [2] | Herbicidal effects Redroot pigweed [4] | Herbicidal effects Foxtail meadow [5] | Herbicidal effects Common lambsquarters [6] | Herbicidal effects Bulrush [13] | Herbicidal effects Barnyardgrass [14] | Herbicidal effects Sagittaria Pygmaea [15]
16%: Inhibitory activity (%) Barnyardgrass [12]
5 (0-5 (Death)): Herbicidal effects Green foxtail [8] | Herbicidal effects Johnsongrass [9]
3 (11-40 (Medium damages)): Herbicidal effects Johnsongrass [3] | Herbicidal effects Barnyardgrass [7] | Herbicidal effects Large crabgrass [10]
0 (91-100 (No damages)): Injury Rice [11]

COc1cc(OC)nc(Oc2ccccc2C=NOCc2cccc(C)c2)n1 [compound 20]
58%: Inhibitory activity (%) Barnyardgrass [12]
5 (0-5 (Death)): Herbicidal effects Foxtail meadow [1] | Herbicidal effects Green foxtail [2] | Herbicidal effects Johnsongrass [3] | Herbicidal effects Redroot pigweed [4] | Herbicidal effects Foxtail meadow [5] | Herbicidal effects Barnyardgrass [7] | Herbicidal effects Green foxtail [8] | Herbicidal effects Johnsongrass [9] | Herbicidal effects Large crabgrass [10] | Herbicidal effects Barnyardgrass [14]
0 (91-100 (No damages)): Injury Rice [11]
4 (6-10 (Severe damages)): Herbicidal effects Common lambsquarters [6] | Herbicidal effects Bulrush [13] | Herbicidal effects Sagittaria Pygmaea [15]

COc1cc(OC)nc(Oc2ccccc2C=NOC(C)c2ccccc2)n1 (stereo not drawn) [compound 21]
4 (6-10 (Severe damages)): Herbicidal effects Green foxtail [2] | Herbicidal effects Johnsongrass [3] | Herbicidal effects Green foxtail [8] | Herbicidal effects Large crabgrass [10]
5 (0-5 (Death)): Herbicidal effects Johnsongrass [9]
26%: Inhibitory activity (%) Barnyardgrass [12]
3 (11-40 (Medium damages)): Herbicidal effects Foxtail meadow [1] | Herbicidal effects Redroot pigweed [4] | Herbicidal effects Foxtail meadow [5] | Herbicidal effects Common lambsquarters [6] | Herbicidal effects Barnyardgrass [7] | Herbicidal effects Bulrush [13] | Herbicidal effects Barnyardgrass [14] | Herbicidal effects Sagittaria Pygmaea [15]
0 (91-100 (No damages)): Injury Rice [11]
